The values below are quoted from earlier work in PubChem BioAssay AID1259409 (Chemical Carcinogenesis Research Information System (CCRIS), 2018).

This data set concerns rodent chemically induced tumor inhibition, incidence and multiplicity. Put plainly: CCRIS tumor inhibitor studies.

Structures are written as SMILES.

In the case of `O=CC(O)C(O)C(O)CO` (stereo not given), the “tumour outcome (control, treated, inhibition, significance)” value (Carcinogen: 1,2-DIMETHYLHYDRAZINE, 540-73-8, Dose [Inhibitor]: 0, 10% IN FIBER-FREE DIET FOR 24 WK BEGINNING POST CARCINOGEN TREATMENT (STUDY DURATION: 32 WK), Route [Inhibitor]: ORAL, Species: RAT, Strain/Sex: SPRAGUE-DAWLEY/MALE, Target Tissue: Type of Lesion: COLON: ADENOCARCINOMA, Dose [Carcinogen]: 12 MG/KG BW 1/WK FOR 8 WK, Promoter: NONE USED) is 73%, 53%, 27%, p=0.05.

Take `NCCCCCC(=O)O`: the “tumour outcome (control, treated, inhibition, significance)” value is 24/63 (38%), 7/33 (21%), 45%, not significant (Carcinogen: N-ETHYL-N-NITROSOUREA, 759-73-9, Dose [Inhibitor]: 0, 1000 MG/L IN DRINKING WATER FOR 12 MO ADMINISTERED TO CARCINOGEN-TREATED MOTHERS (STUDY DURATION: 12 MO), Route [Inhibitor]: ORAL, Species: RAT, Strain/Sex: ALBINO/MALE, FEMALE, Target Tissue: Type of Lesion: PERIPHERAL NERVES: TUMOR, Dose [Carcinogen]: 75 MG/KG BW ADMINISTERED INTRAPERITONEALLY TO MOTHERS 21 D POST CONCEPTION, Promoter: NONE USED); 53/63 (84%), 21/33 (64%), 24%, p<0.05 (Carcinogen: N-ETHYL-N-NITROSOUREA, 759-73-9, Dose [Inhibitor]: 0, 1000 MG/L IN DRINKING WATER FOR 12 MO ADMINISTERED TO OFFSPRING OF CARCINOGEN-TREATED MOTHERS (STUDY DURATION: 12 MO), Route [Inhibitor]: ORAL, Species: RAT, Strain/Sex: ALBINO/MALE, FEMALE, Target Tissue: Type of Lesion: BRAIN: TUMOR, Dose [Carcinogen]: 75 MG/KG BW ADMINISTERED INTRAPERITONEALLY TO MOTHERS 21 D POST CONCEPTION, Promoter: NONE USED); 23/63 (37%), 7/33 (21%), 43%, not significant (Carcinogen: N-ETHYL-N-NITROSOUREA, 759-73-9, Dose [Inhibitor]: 0, 1000 MG/L IN DRINKING WATER FOR 12 MO ADMINISTERED TO OFFSPRING OF CARCINOGEN-TREATED MOTHERS (STUDY DURATION: 12 MO), Route [Inhibitor]: ORAL, Species: RAT, Strain/Sex: ALBINO/MALE, FEMALE, Target Tissue: Type of Lesion: KIDNEY: TUMOR, Dose [Carcinogen]: 75 MG/KG BW ADMINISTERED INTRAPERITONEALLY TO MOTHERS 21 D POST CONCEPTION, Promoter: NONE USED); 17/63 (27%), 15/33 (45%), -67%, not significant (Carcinogen: N-ETHYL-N-NITROSOUREA, 759-73-9, Dose [Inhibitor]: 0, 1000 MG/L IN DRINKING WATER FOR 12 MO ADMINISTERED TO OFFSPRING OF CARCINOGEN-TREATED MOTHERS (STUDY DURATION: 12 MO), Route [Inhibitor]: ORAL, Species: RAT, Strain/Sex: ALBINO/MALE, FEMALE, Target Tissue: Type of Lesion: SPINAL CHORD: TUMOR, Dose [Carcinogen]: 75 MG/KG BW ADMINISTERED INTRAPERITONEALLY TO MOTHERS 21 D POST CONCEPTION, Promoter: NONE USED).

For `C=C1C/C(=C/C)C(=O)O[C@@H]2CCN3CC=C(COC(=O)[C@@]1(O)CO)[C@H]23`, the “tumour outcome (control, treated, inhibition, significance)” value by setting is: (Dose [Inhibitor]: 0, 1 MG/KG IN 0.1 M PHOSPHATE BUFFER 5 D/WK FOR 105 WK (STUDY DURATION: 105 EK), Route [Inhibitor]: GAVAGE, Species: MOUSE, Strain/Sex: B6C3F1/MALE, Target Tissue: Type of Lesion: LIVER: HEPATOCELLULAR ADENOMA OR CARCINOMA) 36/50 (72%), 23/50 (46%), 36%, p<0.05; (Dose [Inhibitor]: 0, 3 MG/KG IN 0.1 M PHOSPHATE BUFFER 5 D/WK FOR 105 WK (STUDY DURATION: 105 WK), Route [Inhibitor]: GAVAGE, Species: MOUSE, Strain/Sex: B6C3F1/FEMALE, Target Tissue: Type of Lesion: LIVER: HEPATOCELLULAR ADENOMA OR CARCINOMA) 16/49 (33%), 0/50 (0%), 100%, p<0.01.

Turning to `CCCCC1C(=O)N(c2ccccc2)N(c2ccccc2)C1=O`, where the note is “Carcinogen: N-NITROSOBIS(2-OXOPROPYL)AMINE, 60599-38-4, Dose [Inhibitor]: 0, 0.25% IN DIET FOR 27 WK BEGINNING POST LAST CARCINOGEN DOSE (STUDY DURATION: 32 WK), Route [Inhibitor]: ORAL, Species: HAMSTER, Strain/Sex: SYRIAN/FEMALE, Target Tissue: Type of Lesion: PANCREAS: ADENOCARCINOMA, Dose [Carcinogen]: 10 MG/KG 1/WK FOR 5 WK, Promoter: NONE USED”, the “tumour outcome (control, treated, inhibition, significance)” value is 20/28 (71%), 7/19 (37%), 48%, p<0.05.

In the case of `CCN(CC)CCCCCCCCOC(=O)c1cc(OC)c(OC)c(OC)c1`, the “tumour outcome (control, treated, inhibition, significance)” value is, setting by setting: (Carcinogen: 7,12-DIMETHYLBENZ[A]ANTHRACENE, 57-97-6, Dose [Inhibitor]: 0, 1.1 UMOL 1/WK FOR 27 WK APPLIED 1 HR POST EACH PROMOTER DOSE (STUDY DURATION: 27 WK), Route [Inhibitor]: DERMAL, Species: MOUSE, Strain/Sex: SENCAR/FEMALE, Target Tissue: Type of Lesion: SKIN: PAPILLOMA, Dose [Carcinogen]: 25 NMOL ONCE, Promoter: CHRYSAROBIN, 491-58-7) 85%, 73%, 14%, not significant; (Carcinogen: 7,12-DIMETHYLBENZ[A]ANTHRACENE, 57-97-6, Dose [Inhibitor]: 0, 4.4 UMOL 1/WK FOR 27 WK APPLIED 1 HR POST EACH PROMOTER DOSE (STUDY DURATION: 27 WK), Route [Inhibitor]: DERMAL, Species: MOUSE, Strain/Sex: SENCAR/FEMALE, Target Tissue: Type of Lesion: SKIN: PAPILLOMA, Dose [Carcinogen]: 25 NMOL ONCE, Promoter: CHRYSAROBIN, 491-58-7) 85%, 82%, 4%, not significant.
